Test results from patent publication US11512128B2, “VEGF/DLL4 binding agents and uses thereof” (MEREO BIOPHARMA 5, INC., priority 2011, dated 2022).

B1: 219R45-MB-21R83: anti-VEGF/anti-DLL4 monovalent/bispecific antibody, heavy chains SEQ ID NO:7 and 62, light chains SEQ ID NO:8 (antibody)
heavy 1: QVQLVQSGAEVKKPGASVKVSCKASGYTFTNYWMHWVRQAPGQGLEWMGDINPSNGRTSYKEKFKRRVTLSVDKSSSTAYMELSSLRSEDTAVYFCTIHYDDKYYPLMDYWGQGTLVTVSSASTKGPSVFPLAPCSRSTSESTAALGCLVKDYFPEPVTVSWNSGALTSGVHTFPAVLQSSGLYSLSSVVTVPSSNFGTQTYTCNVDHKPSNTKVDKTVERKCCVECPPCPAPPVAGPSVFLFPPKPKDTLMISRTPEVTCVVVDVSHEDPEVQFNWYVDGVEVHNAKTKPREEQFNSTFRVVSVLTVVHQDWLNGKEYKCKVSNKGLPAPIEKTISKTKGQPREPQVYTLPPSREKMTKNQVSLTCLVKGFYPSDIAVEWESNGQPENNYKTTPPMLKSDGSFFLYSKLTVDKSRWQQGNVFSCSVMHEALHNHYTQKSLSLSPGK
heavy 2: QVQLVQSGAEVKKPGASVKISCKASGYSFTAYYIHWVKQAPGQGLEWIGYISNYNRATNYNQKFKGRVTFTTDTSTSTAYMELRSLRSDDTAVYYCARDYDYDVGMDYWGQGTLVTVSSASTKGPSVFPLAPCSRSTSESTAALGCLVKDYFPEPVTVSWNSGALTSGVHTFPAVLQSSGLYSLSSVVTVPSSNFGTQTYTCNVDHKPSNTKVDKTVERKCCVECPPCPAPPVAGPSVFLFPPKPKDTLMISRTPEVTCVVVDVSHEDPEVQFNWYVDGVEVHNAKTKPREEQFNSTFRVVSVLTVVHQDWLNGKEYKCKVSNKGLPAPIEKTISKTKGQPREPQVYTLPPSREEMTKNQVSLTCLVEGFYPSDIAVEWESNGQPENNYKTTPPMLDSDGSFFLYSELTVDKSRWQQGNVFSCSVMHEALHNHYTQKSLSLSPGK
light: DIVMTQSPDSLAVSLGERATISCRASESVDNYGISFMKWFQQKPGQPPKLLIYAASNQGSGVPDRFSGSGSGTDFTLTISSLQAEDVAVYYCQQSKEVPWTFGGGTKVEIKRTVAAPSVIFPPSDEQLKSGTASVVCLLNNFYPREAKVQWKVDNALQSGNSQESVTEQDSKDSTYSLSSTLTLSKADYEKHKVYACEVTHQGLSSPVTKSFNRGEC
modifications: 21R79 Heavy chain without predicted signal sequence; 21R83 Heavy chain without signal sequence; Light chain without predicted signal sequence

What was measured:
[1] = test system: OMP-PN8 pancreatic tumor cells; assay: Tumorigenicity of OMP-PN8 pancreatic tumor cells after treatment (serial transplantation); format: in vivo, NOD/SCID mice; conditions: 90 cells from treated tumors transplanted, day 55, no treatment; 21M18, bevacizumab 15 mg/kg, bispecifics 30 mg/kg, gemcitabine 70 mg/kg, four weeks
Protocol: FIG. 6. Tumorigenicity of pancreatic tumor cells after treatment with anti-VEGF/anti-DLL4 bispecific antibodies. OMP-PN8 tumor cells from mice treated with control antibody, anti-hDLL4 antibody 21M18, anti-VEGF antibody bevacizumab, or anti-VEGF/anti-DLL4 bispecific antibodies 219R45-MB-21M18 or 219R45-MB-21R79 with or without gemcitabine were processed to single cell suspensions, and serially transplanted into mice. 90 cells from each treatment group were injected subcutaneously into NOD/SCID mice. Tumors were allowed to grow with no treatment. Data is shown as tumor volume (mm^3) on day 55. Tumor frequency is shown as number of tumors over total number of mice injected in each group.
Mice bearing OMP-PN8 pancreatic tumors were treated with control antibody (15 mg/kg), anti-hDLL4 antibody 21M18 (15 mg/kg), anti-VEGF antibody bevacizumab (15 mg/kg), or anti-VEGF/anti-DLL4 bispecific antibodies 219R45-MB-21M18 or 219R45-MB-21R79 (30 mg/kg) with or without gemcitabine (70 mg/kg). Following four weeks of treatment, tumors were harvested, processed to single cell suspensions and the human tumor cells were purified by immunomagnetic depletion of murine cells. 90 human tumor cells from each treatment group were transferred to a new cohort of mice (n=10 mice/group). Tumors were allowed to grow for 55 days without any treatment and tumor volumes were measured with electronic calipers.

OMP-C8 colon tumor [2] = assay: Tumorigenicity of OMP-C8 colon tumors after treatment (serial transplantation); format: in vivo, NOD/SCID mice; conditions: 150 cells from treated tumors transplanted, day 68; without irinotecan combination
Protocol: FIG. 10. Tumorigenicity of […] colon tumor cells after treatment with anti-VEGF/anti-DLL4 bispecific antibodies. Tumors from mice treated with control antibody, anti-hDLL4 antibody 21M18, anti-VEGF antibody bevacizumab, a combination of 21M18 and bevacizumab, or anti-VEGF/anti-DLL4 bispecific antibodies 219R45-MB-21M18 or 219R45-MB-21R79 with or without irinotecan were processed to single cell suspensions, and serially transplanted into mice. 150 cells from each treatment group were injected subcutaneously into NOD/SCID mice. Tumors were allowed to grow with no treatment. Data are shown as tumor volume (mm^3) on day 68.
Single cell suspensions of OMP-C8 colon tumor xenografts (20,000 cells) were injected subcutaneously into the flanks of 6-8 week old NOD/SCID mice. Tumors were allowed to grow for 33 days until they reached an average volume of 300 mm^3. The mice were randomized (n=5 per group) and treated with anti-DLL4 antibody 21M18, anti-VEGF antibody bevacizumab, a combination of antibodies 21M18 and bevacizumab, anti-VEGF/anti-DLL4 bispecific antibody 219R45-MB-21M18, anti-VEGF/anti-DLL4 bispecific antibody 219R45-MB-21R79, or control antibody, either in combination with irinotecan or without irinotecan. Antibodies and irinotecan were dosed weekly by injection into the intraperitoneal cavity. Antibodies 21M18 and bevacizumab were dosed at 7.5 mg/kg, bispecific antibodies 219R45-MB-21M18 and 219R45-MB-21R79 were dosed at 15 mg/kg, and irinotecan was dosed at 45 mg/kg. Tumors were harvested after 4 weeks, processed into single cell suspensions, and the human tumor cells were isolated. 150 tumor cells from each experimental group were injected subcutaneously into a new cohort of mice (n=10 per group) and tumors were allowed to grow without treatment. Tumor growth was monitored and tumor volumes were measured with electronic calipers.

OMP-C8 colon tumor cells = assay: Tumor growth in human skin graft model; format: in vivo, NOD-SCID mice; conditions: 25 mg/kg intraperitoneally once a week
Protocol: FIG. 5. Inhibition of colon tumor growth in vivo by an anti-VEGF/anti-DLL4 bispecific antibody. OMP-C8 colon tumor cells were injected subcutaneously into a human skin graft in NOD/SCID mice. Mice were treated with control antibody (-▪-), anti-hDLL4 antibody 21M18 (-▴-), anti-VEGF antibody bevacizumab (-∘-), or anti-VEGF/anti-DLL4 bispecific antibody 219R45-MB-21M18 (-▾-). Data is shown as tumor volume (photons/sec) over days post-treatment. Antibodies were administered intraperitoneally at a dose of 25 mg/kg once a week.
A human skin graft model has been reported which comprises a human skin graft and human tumor cells. A human skin graft is established and then human tumor cells are implanted into the skin graft, allowing the tumor cells to grow in an environment with human stroma and vasculature (Tahtis et al., 2003, Mol. Cancer Ther. 2:[…]). Human skin samples were obtained from neonatal foreskin tissue and grafted onto the lateral flank of NOD-SCID mice. After establishment of the skin graft, luciferase-labeled OMP-C8 colon tumor cells (20,000 cells) were injected intradermally into the human skin. Tumor growth was monitored by bioluminescence imaging using an IVIS imaging system (Caliper Life Sciences, Mountain View, Calif.). Tumors were allowed to grow until they reached 1.2×10^6 photons per second. Tumor-bearing mice (n=6 mice/group) were randomized and treated with control Ab, anti-hDLL4 antibody 21M18, anti-VEGF antibody bevacizumab, or anti-VEGF/anti-DLL4 bispecific antibody 219R45-MB-21M18. Animals were treated once a week and antibodies were administered intraperitoneally at a dose of 25 mg/kg. Tumor growth was monitored by bioluminescence imaging on the indicated days.

OMP-C8 colon tumor [3] = assay: OMP-C8 colon tumor growth in vivo; parameters: species or system NOD/SCID mice
Protocol: FIGS. 11A and 11B. Inhibition of colon tumor growth in vivo by anti-VEGF/anti-DLL4 bispecific antibodies. OMP-C8 colon tumor cells were injected subcutaneously into NOD/SCID mice. Mice were treated with control antibody (-▪-), anti-VEGF antibody bevacizumab (-▴-), or anti-VEGF/anti-DLL4 bispecific antibodies 219R45-MB-21M18 (-⋄-), 219R45-MB-21R75 (-●-), 219R45-MB-21R79 (-∘-), or 219R45-MB-21R83 (-▾-). Mice were treated with antibodies as single agents (FIG. 11A) or in combination with irinotecan (FIG. 11B). Antibodies were administered intraperitoneally at a dose of 15 mg/kg once a week and irinotecan at a dose of 7.5 mg/kg one a week. Data are shown as tumor volume (mm^3) over days post-treatment.
Single cell suspensions of OMP-C8 colon tumor xenografts (50,000 cells) were injected subcutaneously into the flanks of 6-8 week old NOD/SCID mice. Tumors were allowed to grow for 21 days until they reached an average volume of 80 mm^3. The mice were randomized (n=8 per group) and treated with anti-DLL4 antibody 21M18, anti-VEGF antibody bevacizumab, anti-VEGF/anti-DLL4 bispecific antibodies 219R45-MB-21M18, 219R45-MB-21R75, 219R45-MB-21R79, 219R45-MB-21R83, or control antibody, either alone or in combination with irinotecan. Antibodies and irinotecan were dosed weekly by injection into the intraperitoneal cavity. Bevacizumab and bispecific antibodies 219R45-MB-21M18, 219R45-MB-21R75, 219R45-MB-21R79, and 219R45-MB-21R83 were dosed at 15 mg/kg, and irinotecan was dosed at 7.5 mg/kg. Tumor growth was monitored and tumor volumes were measured with electronic calipers at the indicated time points. Data are expressed as mean±S.E.M.
Following the treatment phase, tumor sections were prepared and analyzed by hematoxylin and eosin (H&E) staining. […] This is characteristic of highly necrotic tumor tissue.

Molecule | tumor growth frequency (mice with tumors) [1] | tumor growth frequency, single agents (OMP-C8 colon tumor [2]) | inhibition of tumor growth (bioluminescence) (OMP-C8 colon tumor cells) | inhibition of tumor growth in combination with irinotecan (OMP-C8 colon tumor [3]; antibody 15 mg/kg, irinotecan 7.5 mg/kg weekly ip) | H&E staining of tumor sections after treatment (OMP-C8 colon tumor [3]; in combination with irinotecan)
Nc1ccn([C@@H]2O[C@H](CO)[C@@H](O)C2(F)F)c(=O)n1 [gemcitabine, reference compound] | 10 out of 10 | – | – | – | –
CCc1c2c(nc3ccc(OC(=O)N4CCC(N5CCCCC5)CC4)cc13)-c1cc3c(c(=O)n1C2)COC(=O)[C@]3(O)CC [irinotecan, reference compound] | – | reduced tumor growth frequency | – | – | –
bevacizumab [reference compound] | 10 out of 10 | had no effect on tumor growth frequency | inhibited tumor growth | – | –
B1 | – | – | – | greatest inhibition of tumor growth | dark pink staining regions providing evidence of extensive calcification
